{"source": "patent US10906940B2", "about": "“Antimicrobial peptides, pharmaceutical compositions, and methods of use thereof” (priority 2014, dated 2021)", "key": {"[1]": {"system": "Listeria monocytogenes R2-583", "experiment": "microbe, parasite or virus in culture", "details": "R2583"}, "[2]": {"system": "S. aureus 12", "experiment": "microbe, parasite or virus in culture", "assay_type": "cell-based, Staphylococcus aureus", "description": "(§1) The same MIC assay as in Example 6 was used to determine the antimicrobial susceptibility of Compound A, L-form (FIG. 15), and several variants. One variant was Compound A, D-form, with D-Lysine at position 7. Compound B is a variant in the fatty acid chain, with a fatty acid chain composition of C15H29O, and having D-Lys at position 7. Compound C is a variant in the fatty acid chain with a fatty acid chain composition of C11H21O, and having D-Lys at position 7. Variant D is a sequence variant with Phe at position 6 of the cyclic peptide, and having D-Lys at position 7. All variants were chemically synthesized."}, "[3]": {"system": "S. aureus 6", "experiment": "microbe, parasite or virus in culture", "assay_type": "cell-based, Staphylococcus aureus", "description": "as §1"}, "[4]": {"system": "S. aureus 4", "experiment": "microbe, parasite or virus in culture", "assay_type": "cell-based, Staphylococcus aureus", "description": "as §1"}, "[5]": {"system": "S. aureus 19", "experiment": "microbe, parasite or virus in culture", "assay_type": "cell-based, Staphylococcus aureus", "description": "as §1"}, "[6]": {"system": "S. aureus 14", "experiment": "microbe, parasite or virus in culture", "assay_type": "cell-based, Staphylococcus aureus", "description": "as §1"}, "[7]": {"system": "S. aureus 10", "experiment": "microbe, parasite or virus in culture", "assay_type": "cell-based, Staphylococcus aureus", "description": "as §1"}, "[8]": {"system": "S. aureus 8", "experiment": "microbe, parasite or virus in culture", "assay_type": "cell-based, Staphylococcus aureus", "description": "as §1"}, "[9]": {"system": "S. aureus 2", "experiment": "microbe, parasite or virus in culture", "assay_type": "cell-based, Staphylococcus aureus", "description": "as §1"}, "[10]": {"system": "S. aureus ATCC 29213", "experiment": "microbe, parasite or virus in culture", "details": "Staphylococcus aureus, ATCC29213"}, "[11]": {"system": "E. faecium ATCC 700221", "experiment": "microbe, parasite or virus in culture", "assay_type": "cell-based", "details": "Enterococcus faecium, ATCC700221", "description": "as §1"}, "[12]": {"system": "E. faecium BAA-2318", "experiment": "microbe, parasite or virus in culture", "assay_type": "cell-based", "details": "Enterococcus faecium, BAA2318", "description": "as §1"}, "[13]": {"system": "E. faecium ATCC 2320", "experiment": "microbe, parasite or virus in culture", "assay_type": "cell-based", "details": "Enterococcus faecium, ATCC2320", "description": "as §1"}, "[14]": {"system": "S. aureus ATCC25923", "experiment": "microbe, parasite or virus in culture", "details": "Staphylococcus aureus"}, "[15]": {"system": "E. faecalis BAA-2365", "experiment": "microbe, parasite or virus in culture", "assay_type": "cell-based, Enterococcus faecalis", "details": "Enterococcus faecalis, BAA2365", "description": "as §1"}, "[16]": {"system": "E. faecalis ATCC 51575", "experiment": "microbe, parasite or virus in culture", "assay_type": "cell-based, Enterococcus faecalis", "details": "Enterococcus faecalis, ATCC51575", "description": "as §1"}, "[17]": {"system": "E. faecalis ATCC 29212", "experiment": "microbe, parasite or virus in culture", "details": "Enterococcus faecalis, ATCC29212"}, "[18]": {"system": "E. coli ATCC 25853", "details": "E. coli ATCC 25853"}, "[19]": {"system": "Enterobacter cloacae SBJ-7612", "details": "Enterobacter cloacae SBJ-7612 (clinical isolate)"}, "[20]": {"system": "Klebsiella pneumoniae SBJ-9388", "details": "Klebsiella pneumoniae SBJ-9388 (clinical isolate)"}, "[21]": {"system": "Salmonella Newport #17", "details": "Salmonella Newport #17"}, "[22]": {"system": "P. aeruginosa ATCC-27853", "details": "P. aeruginosa ATCC-27853"}, "[23]": {"system": "Enterobacter sakazakii E784", "details": "Enterobacter sakazakii E784"}, "[24]": {"system": "Klebsiella pneumoniae SBJ-9483", "details": "Klebsiella pneumoniae SBJ-9483 (clinical isolate)"}, "[25]": {"system": "E. coli O157: H7 EDL933"}, "[26]": {"system": "Salmonella enterica serovar Montevideo strain 29N", "experiment": "Spot-on-lawn bioactivity assay (zone of inhibition)", "assay_type": "cell-based", "details": "10 μL spotted on lawn of 10^6 cells of S. Montevideo strain 29N, 24 hour incubation"}, "[27]": {"system": "Enterobacter cloacae SBJ-9222", "details": "Enterobacter cloacae SBJ-9222 (clinical isolate)"}, "[28]": {"system": "Klebsiella pneumoniae SBJ-9149", "details": "Klebsiella pneumoniae SBJ-9149 (clinical isolate)"}, "[29]": {"system": "Enterobacter cloacae SBJ-9395", "assay_type": "cell-based", "description": "as §1"}, "[30]": {"system": "Serratia marcescens SAMN04022954", "assay_type": "cell-based", "details": "Serratia marcescens SAMN04022954", "description": "as §1"}, "[31]": {"system": "Serratia marcescens SBJ-9047", "assay_type": "cell-based", "description": "as §1"}, "[32]": {"system": "Serratia marcescens SAMN 04276915", "assay_type": "cell-based", "details": "Serratia marcescens SAMN 04276915", "description": "as §1"}, "[33]": {"system": "Serratia marcescens SAMN 04276914", "assay_type": "cell-based", "details": "Serratia marcescens SAMN 04276914", "description": "as §1"}, "[34]": {"system": "Serratia marcescens SBJ-8283", "assay_type": "cell-based", "description": "as §1"}}, "note": "Read-outs that look alike come from different tables or passages of the source."}
{"compound": "CN[C@H](CC(C)C)C(=O)N[C@H]1C(=O)N[C@@H](CC(N)=O)C(=O)N[C@H]2C(=O)N[C@H]3C(=O)N[C@H](C(=O)N[C@H](C(=O)O)c4cc(O)cc(O)c4-c4cc3ccc4O)[C@H](O)c3ccc(c(Cl)c3)Oc3cc2cc(c3O[C@@H]2O[C@H](CO)[C@@H](O)[C@H](O)[C@H]2O[C@H]2C[C@](C)(N)[C@H](O)[C@H](C)O2)Oc2ccc(cc2Cl)[C@H]1O", "note": "[Vancomycin, vancomycin, reference compound]", "values": [{"measurement": "MIC", "setting": "[1]", "value": 1, "unit": "µg/mL"}, {"measurement": "MIC", "setting": "[2]; S. aureus 12 (MRSA, clinical isolate)", "value": 1, "unit": "µg/mL"}, {"measurement": "MIC", "setting": "[2]; Staphylococcus aureus, MRSA", "value": 1, "unit": "µg/mL"}, {"measurement": "MIC", "setting": "[3]; S. aureus 6 (MRSA, clinical isolate)", "value": 1, "unit": "µg/mL"}, {"measurement": "MIC", "setting": "[3]; Staphylococcus aureus, MRSA", "value": 1, "unit": "µg/mL"}, {"measurement": "MIC", "setting": "[4]; S. aureus 4 (MRSA, clinical isolate)", "value": 1, "unit": "µg/mL"}, {"measurement": "MIC", "setting": "[4]; Staphylococcus aureus, MRSA", "value": 1, "unit": "µg/mL"}, {"measurement": "MIC", "setting": "[5]; S. aureus 19 (MRSA, clinical isolate)", "value": 1, "unit": "µg/mL"}, {"measurement": "MIC", "setting": "[5]; Staphylococcus aureus, MRSA", "value": 1, "unit": "µg/mL"}, {"measurement": "MIC", "setting": "[6]; S. aureus 14 (MRSA, clinical isolate)", "value": 1, "unit": "µg/mL"}, {"measurement": "MIC", "setting": "[6]; Staphylococcus aureus, MRSA", "value": 1, "unit": "µg/mL"}, {"measurement": "MIC", "setting": "[7]; S. aureus 10 (MRSA, clinical isolate)", "value": 1, "unit": "µg/mL"}, {"measurement": "MIC", "setting": "[7]; Staphylococcus aureus, MRSA", "value": 1, "unit": "µg/mL"}, {"measurement": "MIC", "setting": "[8]; S. aureus 8 (MRSA, clinical isolate)", "value": 1, "unit": "µg/mL"}, {"measurement": "MIC", "setting": "[8]; Staphylococcus aureus, MRSA", "value": 1, "unit": "µg/mL"}, {"measurement": "MIC", "setting": "[9]; S. aureus 2 (MRSA, clinical isolate)", "value": 1, "unit": "µg/mL"}, {"measurement": "MIC", "setting": "[9]; Staphylococcus aureus, MRSA", "value": 1, "unit": "µg/mL"}, {"measurement": "MIC", "setting": "[10]", "value": 1, "unit": "µg/mL"}, {"measurement": "MIC", "setting": "[11]", "value": "≥ 256", "unit": "µg/mL"}, {"measurement": "MIC", "setting": "[12]", "value": "≥ 256", "unit": "µg/mL"}, {"measurement": "MIC", "setting": "[13]", "value": "≥ 256", "unit": "µg/mL"}, {"measurement": "MIC", "setting": "[14]", "value": 1, "unit": "µg/mL"}, {"measurement": "MIC", "setting": "[15]", "value": "≥ 256", "unit": "µg/mL"}, {"measurement": "MIC", "setting": "[16]", "value": "≥ 256", "unit": "µg/mL"}, {"measurement": "MIC", "setting": "[17]", "value": 2, "unit": "µg/mL"}]}
{"compound": "Polymyxin B [reference compound]", "values": [{"measurement": "MIC", "setting": "[18]", "value": 0.5, "unit": "µg/mL"}, {"measurement": "MIC", "setting": "[19]", "value": 1, "unit": "µg/mL"}, {"measurement": "MIC", "setting": "[20]", "value": 0.5, "unit": "µg/mL"}, {"measurement": "MIC", "setting": "[21]", "value": 1, "unit": "µg/mL"}, {"measurement": "MIC", "setting": "[22]", "value": 1, "unit": "µg/mL"}, {"measurement": "MIC", "setting": "[23]", "value": 0.5, "unit": "µg/mL"}, {"measurement": "MIC", "setting": "[24]", "value": 0.5, "unit": "µg/mL"}, {"measurement": "MIC", "setting": "[25]", "value": 0.5, "unit": "µg/mL"}, {"measurement": "minimum inhibitory concentration to show clear ZI", "setting": "[26]", "value": 4, "unit": "µg/mL"}, {"measurement": "MIC", "setting": "[27]", "value": 1, "unit": "µg/mL"}, {"measurement": "MIC", "setting": "[28]", "value": 0.5, "unit": "µg/mL"}, {"measurement": "MIC", "setting": "[29]; Enterobacter cloacae SBJ-9395", "value": ">128", "unit": "µg/mL"}, {"measurement": "MIC", "setting": "[29]; Enterobacter cloacae SBJ-9395 (CRE, clinical isolate)", "value": ">128", "unit": "µg/mL"}, {"measurement": "MIC", "setting": "[30]", "value": "≥256", "unit": "µg/mL"}, {"measurement": "MIC", "setting": "[31]; Serratia marcescens SBJ-9047", "value": ">128", "unit": "µg/mL"}, {"measurement": "MIC", "setting": "[31]; Serratia marcescens SBJ-9047 (CRE, clinical isolate)", "value": ">128", "unit": "µg/mL"}, {"measurement": "MIC", "setting": "[32]", "value": "≥256", "unit": "µg/mL"}, {"measurement": "MIC", "setting": "[33]", "value": "≥256", "unit": "µg/mL"}, {"measurement": "MIC", "setting": "[34]; Serratia marcescens SBJ-8283", "value": ">128", "unit": "µg/mL"}, {"measurement": "MIC", "setting": "[34]; Serratia marcescens SBJ-8283 (CRE, clinical isolate)", "value": ">128", "unit": "µg/mL"}]}
